Some test systems named below: NCI-H23 lung; 786-0 renal; SNB-19 CNS; RPMI-8226 leukemia; CAKI-1 renal; SN12C renal; NCI-H522 lung; M14 melanoma; MOLT-4 leukemia; HOP-92 NSCLC.
Test in all cases: NCI tumour cell line growth inhibition, 48 h

Drawing on PubChem BioAssay (NCI), this text covers TGI and GI50 for nine compounds.

Where “and” joins values, the source holds several entries; their conditions need not be identical. Identical values can stand only once.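 Each compound was tested at five concentrations against cells in 96-well plates for 48 hours. GI50 marks 50% less growth. TGI denotes the concentration required for complete inhibition of growth.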

For the compound `CN(C)CCNC(=O)c1cccc2cc3ccc4ccccc4c3nc12`, the TGI in the experiment on NCI-H23 lung was 0.39 µM; in the experiment on 786-0 renal, 1.37 µM; with SNB-19 CNS, 0.919 µM; with RPMI-8226 leukemia it was 0.527 µM; in the experiment on CAKI-1 renal it was 2.14 µM; in the experiment with SN12C renal, 0.818 µM. The TGI with NCI-H522 lung was 0.28 µM; with M14 melanoma, 0.41 µM; in the experiment with MOLT-4 leukemia it was 0.0678 µM; with HOP-92 NSCLC, 0.593 µM.

As for `CC1=C(C(=O)CC(=O)C(=O)Nc2ccccc2C)Sc2ccccc2N1`, the TGI in the experiment with NCI-H23 lung was over 100 µM; with 786-0 renal it was over 69.1 µM; in the experiment with SNB-19 CNS, over 100 µM; in the experiment with RPMI-8226 leukemia, over 65.5 µM; in the experiment on CAKI-1 renal, over 100 µM; with SN12C renal, over 100 µM. For the same compound, the TGI in the experiment on NCI-H522 lung, in the experiment on M14 melanoma, in the experiment with MOLT-4 leukemia and in the experiment on HOP-92 NSCLC was over 100 µM in each case.

Take `c1ccc2c(c1)[O][Sn][O]2`: the GI50 with NCI-H23 lung is 21.3 µg/mL; in the experiment on 786-0 renal it was 23.6 µg/mL; in the experiment on SNB-19 CNS, 61.5 µg/mL; with RPMI-8226 leukemia it was 7.54 µg/mL; in the experiment on CAKI-1 renal, 30.2 µg/mL; with SN12C renal it was 41.8 µg/mL. Also, the GI50 with NCI-H522 lung is 2.03 µg/mL; in the experiment with M14 melanoma, 57.3 µg/mL; with MOLT-4 leukemia, 7.16 µg/mL; in the experiment with HOP-92 NSCLC, 64.8 µg/mL. Further, the TGI was 113 µg/mL in the experiment on NCI-H23 lung; over 150 µg/mL in the experiment on 786-0 renal; over 150 µg/mL in the experiment on SNB-19 CNS; over 150 µg/mL with RPMI-8226 leukemia; over 150 µg/mL in the experiment with CAKI-1 renal; over 150 µg/mL with SN12C renal. Moreover, the TGI in the experiment on NCI-H522 lung was 8.78 µg/mL; in the experiment with M14 melanoma, over 150 µg/mL; in the experiment on MOLT-4 leukemia it was over 150 µg/mL; in the experiment on HOP-92 NSCLC, over 150 µg/mL.

With `CCOC(=O)COc1cccc2occc(=O)c12`, the TGI in the experiment on NCI-H23 lung, in the experiment on 786-0 renal, in the experiment on SNB-19 CNS, in the experiment with RPMI-8226 leukemia, in the experiment with CAKI-1 renal and with SN12C renal was over 100 µM each time. The TGI in the experiment with NCI-H522 lung, with M14 melanoma, in the experiment with MOLT-4 leukemia and in the experiment with HOP-92 NSCLC was over 100 µM throughout.

On to `N=C(N)c1ccc(OCCCCCOc2ccc(C(=N)N)cc2)cc1`, for which the GI50 in the experiment on NCI-H23 lung was 3.34 µM; with 786-0 renal it was 12 µM; in the experiment with SNB-19 CNS, 2.79 µM; in the experiment with RPMI-8226 leukemia it was 3.81 µM and 22.6 µM and 6.87 µM; in the experiment with CAKI-1 renal, 10.3 µM; in the experiment with SN12C renal it was 2.02 µM. The GI50 in the experiment on NCI-H522 lung is 1.66 µM; in the experiment on M14 melanoma, 5.63 µM; in the experiment with MOLT-4 leukemia, 23.3 µM and 12 µM and 28.3 µM; in the experiment with HOP-92 NSCLC, 1.89 µM. The TGI is > 50 µM and 25.4 µM and 29 µM with NCI-H23 lung; > 50 µM and 27.1 µM and 31.8 µM with 786-0 renal; 24.5 µM and 54.6 µM and 32.3 µM in the experiment with SNB-19 CNS; over 100 µM in the experiment on RPMI-8226 leukemia; over 100 µM in the experiment with CAKI-1 renal; 34.2 µM and 25 µM and 24.7 µM with SN12C renal. Besides, the TGI in the experiment on NCI-H522 lung is 9.58 µM and 21.3 µM; in the experiment on M14 melanoma it was 17.2 µM and 31.8 µM and 31.9 µM; with MOLT-4 leukemia, > 50 µM and 51.8 µM and > 100 µM; with HOP-92 NSCLC, 21.5 µM and > 100 µM.

`CCC1=C(c2ccc(OC)cc2)CC[C@]2(CCNC2=O)[C@@H]1C`: the TGI in the experiment with NCI-H23 lung was over 100 µM; with 786-0 renal, over 100 µM; with SNB-19 CNS, over 100 µM; with RPMI-8226 leukemia, 45.7 µM; in the experiment on CAKI-1 renal, over 89.7 µM; in the experiment on SN12C renal, over 96.3 µM. The TGI in the experiment on NCI-H522 lung was 56.3 µM; in the experiment with M14 melanoma it was 62.7 µM; with MOLT-4 leukemia it was 39.7 µM; in the experiment on HOP-92 NSCLC it was over 100 µM.

Take `COc1ccc(C(=O)/C=C/c2ccc(OCc3ccccc3)c(OC)c2)cc1OC`: the GI50 was 4.18 µM in the experiment with NCI-H23 lung; 5.36 µM in the experiment with 786-0 renal; 5.31 µM in the experiment with SNB-19 CNS; 1.88 µM in the experiment with RPMI-8226 leukemia; 4.07 µM in the experiment on CAKI-1 renal; 3.97 µM in the experiment with SN12C renal. The GI50 is 2.34 µM in the experiment with NCI-H522 lung, 5.91 µM in the experiment on M14 melanoma, 3.65 µM in the experiment with MOLT-4 leukemia and 1.4 µM in the experiment on HOP-92 NSCLC. Besides, the TGI with NCI-H23 lung was 66.7 µM; in the experiment on 786-0 renal, over 100 µM; in the experiment on SNB-19 CNS, over 100 µM; in the experiment with RPMI-8226 leukemia, 7.16 µM; with CAKI-1 renal, over 100 µM; in the experiment on SN12C renal it was over 100 µM. The TGI was 6.54 µM with NCI-H522 lung, over 100 µM in the experiment with M14 melanoma, over 100 µM with MOLT-4 leukemia and 5.81 µM with HOP-92 NSCLC.

With `Cc1ccccc1CNc1c2ccccc2nc2ccccc12`, the GI50 in the experiment with NCI-H23 lung is 1.71 µM; in the experiment on 786-0 renal it was 2.54 µM; with SNB-19 CNS, 3.27 µM; in the experiment on RPMI-8226 leukemia it was 1.52 µM; with CAKI-1 renal it was 1.42 µM; in the experiment on SN12C renal, 2.47 µM. In addition, the GI50 in the experiment with NCI-H522 lung is 1.61 µM; with M14 melanoma it was 1.51 µM; in the experiment on MOLT-4 leukemia it was 2.67 µM; in the experiment with HOP-92 NSCLC, 0.834 µM. The TGI in the experiment with NCI-H23 lung was 4.24 µM; with 786-0 renal, 7.47 µM; in the experiment on SNB-19 CNS, 13.7 µM; with RPMI-8226 leukemia, 4.56 µM; with CAKI-1 renal, 3.45 µM; in the experiment with SN12C renal, 8.97 µM. The TGI with NCI-H522 lung came out at 4.32 µM; in the experiment on M14 melanoma it was 3.2 µM; with MOLT-4 leukemia, 8.14 µM; with HOP-92 NSCLC, 4.54 µM.

With `CC(C)C/C(=N\NC(=O)c1ccncc1)c1cc(Cl)ccc1O`, the GI50 in the experiment on NCI-H23 lung is 0.449 µM; in the experiment with 786-0 renal, 0.412 µM; in the experiment on SNB-19 CNS, 1.66 µM; in the experiment on RPMI-8226 leukemia it was 0.461 µM; in the experiment on CAKI-1 renal, 0.213 µM; in the experiment with SN12C renal it was 0.619 µM. Also, the GI50 was 0.312 µM in the experiment on NCI-H522 lung, 0.627 µM with M14 melanoma, 0.29 µM in the experiment with MOLT-4 leukemia and 0.306 µM in the experiment with HOP-92 NSCLC. In addition, the TGI in the experiment with NCI-H23 lung was 33.5 µM; in the experiment on 786-0 renal, 11.8 µM; in the experiment with SNB-19 CNS it was over 100 µM; in the experiment with RPMI-8226 leukemia, over 50.7 µM; in the experiment on CAKI-1 renal, 12.6 µM; with SN12C renal, over 52.5 µM. Besides, the TGI with NCI-H522 lung came to 16 µM; in the experiment with M14 melanoma it was 13.3 µM; with MOLT-4 leukemia it was 20.8 µM; in the experiment with HOP-92 NSCLC, 28.6 µM.
